The text below walks through data of patent publication US6030950A, “Pharmaceutical therapeutic use of glutathione derivative” (priority 1987, dated 2000).

The structures appear in SMILES notation. Where two headings read alike, the source gives them in different places.

The subject of one series is human erythrocytes. As to conditions: incubation with 0.5 mg of reduced glutathione, 37° C., 30 minutes; 10 mL heparinised venous blood; n=20, average and standard deviation. As to the method: 1.1) In vitro experiment with human erythrocytes to improve and normalize the redox behavior:
Human venous blood (10 mL) was taken from each of 20 patients with different diseases and prevented from clotting by the addition of heparin.

Series [1] has as its target glucose-6-phosphate dehydrogenase (Homo sapiens, UniProt P11413). As to conditions: incubation with 0.5 mg reduced glutathione, 37° C., 30 minutes; n=22, average and standard deviation. The source says:
(§1) 1.2) In vitro experiment on cell systems of human erythrocytes Under the same conditions as those for the experiment described above, the enzymes, glucose-6-phosphate dehydrogenase and glutathione reductase, from the erythrocytes of 22 patients, were investigated in vitro. n=22 (average value and standard deviation are given)

A further series has as its target glutathione reductase (Homo sapiens, UniProt P00390). As to conditions: incubation with 0.5 mg reduced glutathione, 37° C., 30 minutes; n=22, average and standard deviation.
Source text: as §1

For series [2] the following is noted: rabbit ear venous blood, oxygen deficiency stress, 10 mg/kg, 5-10 minutes after administration; n=30. As to the method:
2.1) Animal Experiments with rabbits to improve and/or normalize the redox status of the blood:
In 5 different rabbits, the following parameters were measured by the method and with the instrument of VINCENT in 30 experiments in venous blood:
redox potential E H or electron potential: rH2
The values were measured in the venous blood of the ear after a defined oxygen deficiency stress.
The following values were determined 5-10 minutes after the glutathione one was administered:
Boundary conditions: Temperature of 20° C., air pressure of 767 mm Hg.

For series [3] the following is noted: human blood, oxygen deficiency stress, 600 mg slowly intravenously, 10 minutes after administration; n=50. Here is the method:
2.2) Self-experiment on man to improve and/or normalize the redox status of the blood:
After a defined oxygen deficiency stress, the same parameters were determined in human blood as in the trial described above. In all 50 trials were carried out on different days
After that, glutathione was slowly administered intravenously in an amount of 600 mg.
Boundary conditions: Temperature of 20° C., air pressure of 758-770 mm Hg.

Series [4] relates to malignant melanoma from man. As to conditions: 300 mg three times per week. The source says: 2.4) Experiment with 40 healthy gray mice after transplantation of a malignant melanoma from person.
Forty healthy gray mice were inoculated with 10^6 malignant melanoma cells each.
III.1 Experiment with 40 healthy gray mice after transplantation of a malignant melanoma from person.

The conditions of series [5]: in vivo.
For series [6] the following is noted: cited from earlier work.
The conditions of series [7]: cited from earlier work. The source holds these as a separate data set.

Sequence of glutathione reductase (P00390 44-522): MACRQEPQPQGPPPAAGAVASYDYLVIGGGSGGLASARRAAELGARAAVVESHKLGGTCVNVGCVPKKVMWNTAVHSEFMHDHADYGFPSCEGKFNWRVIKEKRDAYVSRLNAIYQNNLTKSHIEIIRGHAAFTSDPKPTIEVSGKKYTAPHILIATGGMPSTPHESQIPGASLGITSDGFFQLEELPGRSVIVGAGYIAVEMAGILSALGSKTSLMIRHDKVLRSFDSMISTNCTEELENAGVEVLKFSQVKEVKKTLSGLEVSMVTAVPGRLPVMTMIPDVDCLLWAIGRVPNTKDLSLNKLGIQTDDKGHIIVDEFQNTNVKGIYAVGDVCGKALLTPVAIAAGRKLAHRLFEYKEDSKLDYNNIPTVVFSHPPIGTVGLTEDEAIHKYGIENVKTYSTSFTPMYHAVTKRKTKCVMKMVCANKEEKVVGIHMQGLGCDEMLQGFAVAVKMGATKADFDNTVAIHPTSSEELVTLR
Sequence of glucose-6-phosphate dehydrogenase (P11413 2-515 limits assumed): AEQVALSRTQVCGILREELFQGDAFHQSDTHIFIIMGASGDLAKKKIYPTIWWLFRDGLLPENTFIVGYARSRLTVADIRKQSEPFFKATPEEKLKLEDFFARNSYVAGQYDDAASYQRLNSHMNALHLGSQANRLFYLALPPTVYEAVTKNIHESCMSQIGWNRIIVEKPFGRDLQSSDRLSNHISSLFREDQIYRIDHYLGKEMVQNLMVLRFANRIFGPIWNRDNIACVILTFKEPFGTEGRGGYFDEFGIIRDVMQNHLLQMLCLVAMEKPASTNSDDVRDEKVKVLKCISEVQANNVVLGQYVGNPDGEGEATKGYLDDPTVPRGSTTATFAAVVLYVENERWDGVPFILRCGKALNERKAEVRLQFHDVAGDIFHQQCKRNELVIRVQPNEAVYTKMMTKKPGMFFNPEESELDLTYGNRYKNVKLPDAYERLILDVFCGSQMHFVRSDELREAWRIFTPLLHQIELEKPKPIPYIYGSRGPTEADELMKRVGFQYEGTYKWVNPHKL

For the compound `N[C@@H](CCC(=O)N[C@@H](CS)C(=O)NCC(=O)O)C(=O)O` [reduced glutathione, gamma-glutamyl-cysteinyl-glycine], the “content of intraerythrocytic reduced glutathione, value of incubation” value with human erythrocytes is on record as 1.99±0.15 mU. Further, the “glucose-6-phosphate dehydrogenase, value after incubation” value in series [1] is listed as 179±16 mU/10^9 erys. In addition, the “glutathione reductase, value after incubation” value at glutathione reductase worked out at 11.3±1.2 U/10^11 erys. For the same compound, the “redox potential or electron potential rH2” value in [2] was 21.8 ± 0.95; in [3] it was 23.1 ± 1.4. Moreover, in [4] (30 mice, 10^6 melanoma cells), the “further animals died within 20 days” value is on record as “five”. Further, the “further animals died within 30 days” value in series [4] (30 mice, 10^6 melanoma cells) is “seven”. Besides, the “animals died within 15 days” value in [4] (30 mice, 10^6 melanoma cells, untreated controls died within 8-12 days) was “three”. Besides, the “share of treated animals that survived the period of observation” value in series [4] (30 days after inoculation) was determined as 50%. The “animals that survived the period of observation” value in [4] (of 30 treated mice, 30 days after inoculation) is on record as “Fifteen”. The “toxicity of the therapeutic dosage” value in [5] was “nontoxic”. In series [6] (ethanol), the solubility in ethanol entry was “soluble”. Moreover, the “solubility in water and physiological salt solution” value in [6] (water and physiological salt solution) is recorded as “readily soluble”. Besides, the “pK value for COOH(1)” value in [7] (COOH(1)) is 3.53. In addition, the “pK value for COOH(2)” value in series [7] (COOH(2)) is 2.12. Besides, the “pK value for NH3+” value in series [7] (NH3^+) is reported as 8.66. Also, the “pK value for SH” value in series [7] (SH) is given as 9.66.
